# Assay results from patent US9663473B2 (Actelion Pharmaceuticals Ltd, priority 2013, dated 2017).
# Biological target: T1, recombinant human ALX receptor (Homo sapiens, UniProt P25090)
# T1 construct: expressed in transfected cells; host or cells: HEK293 (HEK293-hALXR-Gα16)
# T1 sequence (P25090 1-351): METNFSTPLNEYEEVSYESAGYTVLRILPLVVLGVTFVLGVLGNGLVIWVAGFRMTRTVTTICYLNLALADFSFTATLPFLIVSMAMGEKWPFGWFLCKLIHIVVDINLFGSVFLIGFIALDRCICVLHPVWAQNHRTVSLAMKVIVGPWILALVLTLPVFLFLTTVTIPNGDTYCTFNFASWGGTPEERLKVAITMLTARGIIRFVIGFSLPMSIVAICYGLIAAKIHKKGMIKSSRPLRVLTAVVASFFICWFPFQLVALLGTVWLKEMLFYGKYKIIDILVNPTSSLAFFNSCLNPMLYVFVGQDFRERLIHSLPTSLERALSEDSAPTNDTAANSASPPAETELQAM
# Experiment: Intracellular calcium measurements (FLIPR), ALX receptor agonistic activity
# Assay type: cell-based
# Settings: HEK293-hALXR-Gα16 cells, Fluo-4 calcium signal, normalized to WKYMVm 10 nM
# Method: The ALX receptor agonistic activity of the compounds of formula (I) is determined in accordance with the following experimental method.
# Intracellular Calcium Measurements:
# Cells expressing recombinant human ALX receptor and the G-protein Gα16 (HEK293-hALXR-Gα16) were grown to 80% confluency in Growing Medium (GM). Cells were detached from culture dishes with a cell dissociation buffer (Invitrogen, 13151-014), and collected by centrifugation at 1′000 rpm at rt for 5 min in Assay Buffer (AB) (equal parts of Hank's BSS (Gibco, 14065-049) and DMEM without Phenol Red (Gibco, 11880-028)). After 60 min incubation at 37° C. under 5% CO2 in AB supplemented with 1 μM Fluo-4 (AM) (Invitrogen, F14202) and 20 mM HEPES (Gibco, 15630-056), the cells were washed and resuspended in AB. They were then seeded onto 384-well FLIPR assay plates (Greiner, 781091) at 50′000 cells in 70 μl per well and sedimented by centrifugation at 1′000 rpm for 1 min. Stock solutions of test compounds were made up at a concentration of 10 mM in DMSO, and serially diluted in AB to concentrations required for activation dose response curves. WKYMVm (Phoenix Peptides) was used as a reference agonist. A FLIPR Tetra instrument (Molecular Devices) was operated according to the manufacturer's standard instructions, adding 4 μl of test compound dissolved at 10 mM in DMSO and diluted prior to the experiment in assay buffer to obtain the desired final concentration. Changes in fluorescence were monitored before and after the addition of test compounds at lex=488 nm and lem=540 nm. Emission peak values above base level after compounds addition were exported after base line subtraction. Values were normalized to high-level control (WKYMVm compound, 10 nM final concentration) after subtraction of the base line value (AB addition).
row,Compound,EC50
1,"COc1ccc(CC(NC(=O)N[C@H]2CC[C@H](O)CC2)c2nc3cc(C(F)(F)F)ccc3[nH]2)cc1 (relative stereo) [Example 82, 1-(trans-4-Hydroxycyclohexyl)-3-(2-(4-methoxyphenyl)-1-(5-(trifluoromethyl)-1H-benzo[d]imidazol-2-yl)ethyl)urea]",2.3 nM
2,"COc1ccc(C[C@@H](NC(=O)NC[C@H]2CCCC[C@@H]2O)c2nc3ccccc3[nH]2)cc1 (relative stereo) [Example 103, 1-((R)-1-(1H-Benzo[d]imidazol-2-yl)-2-(4-methoxyphenyl)ethyl)-3-(((1R*,2S*)-2-hydroxycyclohexyl)methyl)urea]",309 nM
3,"COc1ccc(C[C@@H](NC(=O)N[C@H]2CC[C@H](O)c3ccccc32)c2nc3ccccc3[nH]2)cc1 (relative stereo) [Example 134, 1-((R)-1-(1H-Benzo[d]imidazol-2-yl)-2-(4-methoxyphenyl)ethyl)-3-((1 S*,4S*)-4-hydroxy-1,2,3,4-tetrahydronaphthalen-1-yl)urea]",107 nM
4,"COc1ccc(C[C@@H](NC(=O)N[C@@H]2CCCC[C@@H]2O)c2nc3ccccc3[nH]2)cc1 (relative stereo) [Example 145, 1-((R)-1-(1H-Benzo[d]imidazol-2-yl)-2-(4-methoxyphenyl)ethyl)-3-((1R*,2S*)-2-hydroxycyclohexyl)urea]",62 nM
5,"CCOC(=O)[C@@H]1CCCC[C@H]1NC(=O)N[C@H](Cc1ccc(OC)cc1)c1nc2ccccc2[nH]1 (relative stereo) [Example 161, (1R*,2R*)-Ethyl 2-(3-((R)-1-(1H-benzo[d]imidazol-2-yl)-2-(4-methoxyphenyl)ethyl)ureido)cyclohexanecarboxylate]",0.6 nM
6,"COc1ccc(C[C@@H](NC(=O)N[C@@H]2CCCC[C@H]2C(N)=O)c2nc3ccccc3[nH]2)cc1 (relative stereo) [Example 163, (1R*,2R*)-2-(3-((R)-1-(1H-Benzo[d]imidazol-2-yl)-2-(4-methoxyphenyl)ethyl)ureido)cyclohexanecarboxamide]",120 nM
7,"COc1ccc(C[C@@H](NC(=O)N[C@@H]2CCNC[C@@H]2F)c2nc3ccccc3[nH]2)cc1 (relative stereo) [Example 164, 1-((R)-1-(1H-Benzo[d]imidazol-2-yl)-2-(4-methoxyphenyl)ethyl)-3-((3S*,4R*)-3-fluoropiperidin-4-yl)urea]",25 nM
8,"COc1ccc(C[C@@H](NC(=O)N[C@H]2CCNC[C@@H]2F)c2nc3ccccc3[nH]2)cc1 (relative stereo) [Example 165, 1-((R)-1-(1H-Benzo[d]imidazol-2-yl)-2-(4-methoxyphenyl)ethyl)-3-((3S*,4S*)-3-fluoropiperidin-4-yl)urea]",27 nM
9,"COc1ccc(C[C@@H](NC(=O)N[C@@H]2CC[C@H](O)C2)c2nc3ccccc3[nH]2)cc1 (relative stereo) [Example 171, 1-((R)-1-(1H-Benzo[d]imidazol-2-yl)-2-(4-methoxyphenyl)ethyl)-3-((1R*,3S*)-3-hydroxycyclopentyl)urea]",38 nM
10,"COc1ccc(C[C@@H](NC(=O)N[C@H]2CC[C@H](O)C2)c2nc3ccccc3[nH]2)cc1 (relative stereo) [Example 172, 1-((R)-1-(1H-Benzo[d]imidazol-2-yl)-2-(4-methoxyphenyl)ethyl)-3-((1 S*,3S*)-3-hydroxycyclopentyl)urea]",15 nM
11,"COc1ccc(C[C@@H](NC(=O)N[C@H]2CNC[C@@H]2F)c2nc3ccccc3[nH]2)cc1 (relative stereo) [Example 184, 1-((R)-1-(1H-Benzo[d]imidazol-2-yl)-2-(4-methoxyphenyl)ethyl)-3-((3S*,4S*)-4-fluoropyrrolidin-3-yl)urea]",829 nM
12,"COc1ccc(C[C@@H](NC(=O)N[C@@H]2CNC[C@@H]2F)c2nc3ccccc3[nH]2)cc1 (relative stereo) [Example 185, 1-((R)-1-(1H-Benzo[d]imidazol-2-yl)-2-(4-methoxyphenyl)ethyl)-3-((3R*,4S*)-4-fluoropyrrolidin-3-yl)urea]",143 nM
13,"O=C(NC(Cc1ccc(Br)cc1F)c1nc2ccccc2[nH]1)N[C@H]1CC[C@H](O)CC1 (relative stereo) [Example 188, 1-(1-(1H-Benzo[d]imidazol-2-yl)-2-(4-bromo-2-fluorophenyl)ethyl)-3-(trans-4-hydroxycyclohexyl)urea]",3.7 nM
14,"COc1ccc(CC(NC(=O)N[C@H]2CC[C@](C)(O)CC2)c2nc3ccccc3[nH]2)cc1F (relative stereo) [Example 226, 1-(1-(1H-Benzo[d]imidazol-2-yl)-2-(3-fluoro-4-methoxyphenyl)ethyl)-3-(trans-4-hydroxy-4-methylcyclohexyl)urea]",6.6 nM
15,"COc1ccc(CC(NC(=O)N[C@H]2CC[C@@](C)(O)CC2)c2nc3ccccc3[nH]2)cc1F (relative stereo) [Example 227, 1-(1-(1H-Benzo[d]imidazol-2-yl)-2-(3-fluoro-4-methoxyphenyl)ethyl)-3-(cis-4-hydroxy-4-methylcyclohexyl)urea]",97 nM
16,"O=C(NC(Cc1ccc(C(F)(F)F)cc1F)c1nc2ccccc2[nH]1)N[C@H]1CC[C@H](O)CC1 (relative stereo) [Example 240, 1-(1-(1H-Benzo[d]imidazol-2-yl)-2-(2-fluoro-4-(trifluoromethyl)phenyl)ethyl)-3-(trans-4-hydroxycyclohexyl)urea]",12 nM
17,"COc1ccc(CC(NC(=O)N[C@H]2CC[C@H](O)CC2)c2nc3ccc(F)cc3[nH]2)c(F)c1 (relative stereo) [Example 244, 1-(1-(6-Fluoro-1H-benzo[d]imidazol-2-yl)-2-(2-fluoro-4-methoxyphenyl)ethyl)-3-(trans-4-hydroxycyclohexyl)urea]",1.1 nM

# Further lines, results first:
row,EC50,Compound
1,9.5 nM,"COc1ccc(CC(NC(=O)N[C@H]2CC[C@H](O)CC2)c2nc3ccccc3[nH]2)cc1F (relative stereo) [Example 167, 1-(1-(1H-Benzo[d]imidazol-2-yl)-2-(3-fluoro-4-methoxyphenyl)ethyl)-3-(trans-4-hydroxycyclohexyl)urea]"
2,8.1 nM,"O=C(NC(Cc1ccc(Br)c(F)c1)c1nc2ccccc2[nH]1)N[C@H]1CC[C@H](O)CC1 (relative stereo) [Example 187, 1-(1-(1H-Benzo[d]imidazol-2-yl)-2-(4-bromo-3-fluorophenyl)ethyl)-3-(trans-4-hydroxycyclohexyl)urea]"
3,1.9 nM,"COc1ccc(CC(NC(=O)N[C@H]2CC[C@H](O)CC2)c2nc3ccccc3[nH]2)c(F)c1 (relative stereo) [Example 210, 1-(1-(1H-Benzo[d]imidazol-2-yl)-2-(2-fluoro-4-methoxyphenyl)ethyl)-3-(trans-4-hydroxycyclohexyl)urea]"
4,2.6 nM,"COc1ccc(CC(NC(=O)N[C@H]2CC[C@H](O)CC2)c2nc3ccccc3[nH]2)c(F)c1F (relative stereo) [Example 232, 1-(1-(1H-Benzo[d]imidazol-2-yl)-2-(2,3-difluoro-4-methoxyphenyl)ethyl)-3-(trans-4-hydroxycyclohexyl)urea]"
5,3.2 nM,"COc1cc(F)c(CC(NC(=O)N[C@H]2CC[C@H](O)CC2)c2nc3ccccc3[nH]2)c(F)c1 (relative stereo) [Example 235, 1-(1-(1H-Benzo[d]imidazol-2-yl)-2-(2,6-difluoro-4-methoxyphenyl)ethyl)-3-(trans-4-hydroxycyclohexyl)urea]"
6,36 nM,"O=C(NC(Cc1ccc(C(F)(F)F)c(F)c1)c1nc2ccccc2[nH]1)N[C@H]1CC[C@H](O)CC1 (relative stereo) [Example 237, 1-(1-(1H-Benzo[d]imidazol-2-yl)-2-(3-fluoro-4-(trifluoromethyl)phenyl)ethyl)-3-(trans-4-hydroxycyclohexyl)urea]"
7,138 nM,"COc1c(F)cc(CC(NC(=O)N[C@H]2CC[C@H](O)CC2)c2nc3ccccc3[nH]2)cc1F (relative stereo) [Example 241, 1-(1-(1H-Benzo[d]imidazol-2-yl)-2-(3,5-difluoro-4-methoxyphenyl)ethyl)-3-(trans-4-hydroxycyclohexyl)urea]"
8,10 nM,"COc1cc(F)c(CC(NC(=O)N[C@H]2CC[C@H](O)CC2)c2nc3ccccc3[nH]2)cc1F (relative stereo) [Example 247, 1-(1-(1H-Benzo[d]imidazol-2-yl)-2-(2,5-difluoro-4-methoxyphenyl)ethyl)-3-(trans-4-hydroxycyclohexyl)urea]"
